Assay results from US7674819B2 (Warner-Lambert Company LLC, priority 2005, dated 2010).
Where a chain is given by its changes, count along the chain named. pIC50: −log10 of the molar value. Where two headings read alike, the source gives them in different places.

Columns and labels:
hAR = target: T1, hAR (Homo sapiens, UniProt P10275); assay: Competitive binding of 3H-DHT to baculovirus/Sf9 generated hAR extracts; conditions: one hour at 4° C., mean of multiple tests
T1 sequence (P10275 1-920): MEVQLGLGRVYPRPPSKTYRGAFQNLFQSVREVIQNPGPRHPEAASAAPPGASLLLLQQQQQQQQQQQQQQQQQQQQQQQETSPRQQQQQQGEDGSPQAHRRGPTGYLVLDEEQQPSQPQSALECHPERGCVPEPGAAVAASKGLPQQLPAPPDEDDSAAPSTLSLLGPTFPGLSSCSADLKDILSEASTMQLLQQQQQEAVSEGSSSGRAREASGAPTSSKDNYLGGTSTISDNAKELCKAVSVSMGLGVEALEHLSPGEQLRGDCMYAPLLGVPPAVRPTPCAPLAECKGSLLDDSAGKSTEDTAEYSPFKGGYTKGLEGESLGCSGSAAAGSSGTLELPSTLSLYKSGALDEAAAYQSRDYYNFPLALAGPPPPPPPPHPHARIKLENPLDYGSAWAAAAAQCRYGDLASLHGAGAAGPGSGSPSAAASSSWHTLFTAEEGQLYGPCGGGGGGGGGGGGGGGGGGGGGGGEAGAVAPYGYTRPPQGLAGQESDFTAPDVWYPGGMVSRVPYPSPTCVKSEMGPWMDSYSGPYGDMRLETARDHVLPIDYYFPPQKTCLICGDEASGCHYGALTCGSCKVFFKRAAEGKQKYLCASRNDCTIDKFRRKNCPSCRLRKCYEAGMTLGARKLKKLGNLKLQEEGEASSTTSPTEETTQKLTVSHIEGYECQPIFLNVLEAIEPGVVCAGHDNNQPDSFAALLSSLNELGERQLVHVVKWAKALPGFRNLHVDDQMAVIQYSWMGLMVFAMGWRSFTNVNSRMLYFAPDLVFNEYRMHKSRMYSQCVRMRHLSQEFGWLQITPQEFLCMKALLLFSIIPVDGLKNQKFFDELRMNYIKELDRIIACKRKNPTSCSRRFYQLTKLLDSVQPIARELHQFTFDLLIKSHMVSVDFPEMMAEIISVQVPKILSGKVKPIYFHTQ
Procedure: The description below describes how the assay was carried out.
Competitive binding analysis was performed on baculovirus/Sf9 generated hAR extracts in the presence or absence of different concentrations of test agent and a fixed concentration of ^3H-dihydrotestosterone (^3H-DHT) as tracer. This binding assay method is a modification of a protocol previously described (Liao S., et. al. J. Steroid Biochem. 20:11-17 1984). Briefly, progressively decreasing concentrations of compounds are incubated in the presence of hAR extract (Chang et al. P.N.A.S. Vol. 89, pp. […], 1992), hydroxylapatite, and 1 nM^3H-DHT for one hour at 4° C. Subsequently, the binding reactions are washed three times to completely remove excess unbound ^3H-DHT. hAR bound ^3H-DHT levels are determined in the presence of compounds (i.e. competitive binding) and compared to levels bound when no competitor is present (i.e. maximum binding). Compound binding affinity to the hAR is expressed as the concentration of compound at which one half of the maximum binding is inhibited.

androgen receptor = target: T2, androgen receptor (Homo sapiens, UniProt P10275); assay: AR Antagonist Cell Assay (MDA-MB453-MMTV clone 54-19, luciferase reporter); assay type: cell-based; conditions: inhibition of induction by DHT (final concentration at 100 μM), 17 hr, compound 0.32-1000 nM, mean of multiple tests
T2 sequence (P10275 1-920 Q868H): T1 sequence (P10275 1-920) with Q868H
Procedure: The compounds ability to antagonize the effects of androgen on the androgen receptor were determined in a whole cell assay as described immediately below.
Experimental Procedure for AR Antagonist Cell Assay
This cell line is a stable transfected cell line with MDA-MB453 cell background (a human breast tumor cell line expressing androgen receptor). A MMTV minimal promoter containing ARE was first cloned in front of a firefly luciferase reporter gene. Then the cascade was cloned into transfection vector pUV120puro. […] Puromycin resistant stable cell line was selected.
Cell Culture Media and Reagents:
Plating medium: DMEM (phenol red free), 10% charcoal treated HyClone serum, 1% L-glutamine
Assay medium: DMEM (phenol red free), 1% charcoal treated HyClone serum, 1% L-glutamine, 1% penicillin/streptomycin
Cells are maintained in culture medium, splitting cells when they reach 80-90% confluence
To test compounds, 10,000 cells/well are plated to opaque 96 cell culture plate in 100 ul/well plating medium, culture for overnight at 37° C. in cell culture incubator
Add 10 ul/well freshly prepared DHT (final concentration at […]) to each well, incubate at 37° C. for 17 hr (overnight)
Add 50 ul/well 3× luciferase buffer, incubate at room temperature for 5 minutes, then count on Luminometer
The results are reported as the mean of multiple tests described below (the numbers of tests are indicated in the footnote). N.D. denotes that the compound was not tested.

[1] = concentration at which one half of maximum binding of 1 nM 3H-DHT to hAR is inhibited, read-out: IC50
[2] = IC50, concentration at which one half of maximum binding of 1 nM 3H-DHT to hAR is inhibited

## C[C@@H](c1ccccc1)N1CC(C)(C)C(Oc2ccc(C#N)c(C(F)(F)F)c2)C1=O (mixture of isomers) [Example 69, (+)-4-[4,4-Dimethyl-2-oxo-1-(1-phenyl-ethyl)-pyrrolidin-3-yloxy]-2-trifluoromethyl-benzonitrile]
hAR; [1]
  pIC50: 6.59
Androgen receptor; read-out: IC50
  pIC50: 6.48

## COC(=O)c1cccc(CN2CC(C)(C)C(Oc3ccc(C#N)c(C(F)(F)F)c3)C2=O)c1 (racemic) [Example 25, (±)-3-[3-(4-Cyano-3-trifluoromethyl-phenoxy)-4,4-dimethyl-2-oxo-pyrrolidin-1-ylmethyl]-benzoic acid methyl ester]
hAR; [2]
  pIC50: 7.32
Androgen receptor; read-out: IC50
  pIC50: 6.97

## C[C@@H](c1ccc(F)cc1)N1CC(C)(C)[C@@H](Oc2ccc(C#N)c(C(F)(F)F)c2)C1=O (racemic) [Example 71, (±)-4-{1-[1-(4-Fluoro-phenyl)-ethyl]-4,4-dimethyl-2-oxo-pyrrolidin-3-yloxy}-2-trifluoromethyl-benzonitrile]
hAR; [1]
  pIC50: 6.98
Androgen receptor
  pIC50: 8.22

## CCCC(C)N1CC(C)(C)C(Oc2ccc(C#N)c(C(F)(F)F)c2)C1=O (racemic) [Example 72, (±)-4-[4,4-Dimethyl-1-(1-methyl-butyl)-2-oxo-pyrrolidin-3-yloxy]-2-trifluoromethyl-benzonitrile]
hAR; [2]
  pIC50: 6.69
Androgen receptor
  pIC50: 8.15

## CC1(C)CN(Cc2ccc(O)cc2)C(=O)C1Oc1ccc(C#N)c(C(F)(F)F)c1 (single isomer, unassigned) [Example 9, 4-[1-(4-Hydroxy-benzyl)-4,4-dimethyl-2-oxo-pyrrolidin-3-yloxy]-2-trifluoromethyl-benzonitrile]
hAR; [2]
  pIC50: 7.74
Androgen receptor
  pIC50: 7.34

## CC1(C)CN(S(C)(=O)=O)C(=O)C1Oc1ccc(C#N)c(C(F)(F)F)c1 (single isomer, unassigned) [Example 100, 4-(1-Methanesulfonyl-4,4-dimethyl-2-oxo-pyrrolidin-3-yloxy)-2-trifluoromethyl-benzonitrile]
hAR; [2]
  pIC50: 7.92
Androgen receptor
  pIC50: 7.92

## CSCN1CC(C)(C)C(Oc2ccc(C#N)c(C(F)(F)F)c2)C1=O (single isomer, unassigned) [Example 100B, 4-(4,4-Dimethyl-1-methylsulfanylmethyl-2-oxo-pyrrolidin-3-yloxy)-2-trifluoromethyl-benzonitrile]
hAR; [2]
  pIC50: 7.12
Androgen receptor
  pIC50: 7.62

## CC1(C)CN(S(=O)(=O)C2CC2)C(=O)C1Oc1ccc(C#N)c(C(F)(F)F)c1 (single isomer, unassigned) [Example 100C, 4-(1-Cyclopropanesulfonyl-4,4-dimethyl-2-oxo-pyrrolidin-3-yloxy)-2-trifluoromethyl-benzonitrile]
hAR; [2]
  pIC50: 7.23
Androgen receptor
  pIC50: 7.42

## CC1(C)CN(Cc2ccccc2)C(=O)C1Oc1ccc(C#N)c(C(F)(F)F)c1 (single isomer, unassigned; (+)) [Example 6, (+)-4-(1-Benzyl-4,4-dimethyl-2-oxo-pyrrolidin-3-yloxy)-2-trifluoromethyl-benzonitrile]
hAR; [2]
  pIC50: 7.51
Androgen receptor
  pIC50: 6.87

## CC1(C)CN(Cc2cccc(O)c2)C(=O)C1Oc1ccc(C#N)c(C(F)(F)F)c1 (single isomer, unassigned; (+)) [Example 14, (+)-4-[1-(3-Hydroxy-benzyl)-4,4-dimethyl-2-oxo-pyrrolidin-3-yloxy]-2-trifluoromethyl-benzonitrile]
hAR; [2]
  pIC50: 7.64
Androgen receptor
  pIC50: 7.00

## COc1cccc(C(C)N2CC(C)(C)C(Oc3ccc(C#N)c(C(F)(F)F)c3)C2=O)c1 (single isomer, unassigned; (+)) [Example 23, (+)-4-{1-[1-(3-Methoxy-phenyl)-ethyl]-4,4-dimethyl-2-oxo-pyrrolidin-3-yloxy}-2-trifluoromethyl-benzonitrile]
hAR; [2]
  pIC50: 7.19
Androgen receptor
  pIC50: 7.24

## CC1(C)CN(S(C)(=O)=O)C(=O)C1Oc1ccc(C#N)c(C(F)(F)F)c1 (single isomer, unassigned; (+)) [Example 96, (+)-4-(1-Methanesulfonyl-4,4-dimethyl-2-oxo-pyrrolidin-3-yloxy)-2-trifluoromethyl-benzonitrile]
hAR; concentration at which one half of maximum binding of 1 nM 3H-DHT to hAR is inhibited
  pIC50: 7.92
Androgen receptor
  pIC50: 7.44

## CCCC(=O)N1CC(C)(C)C(Oc2ccc(C#N)c(C(F)(F)F)c2)C1=O (single isomer, unassigned; (+)) [Example 103, (+)-4-(1-Butyryl-4,4-dimethyl-2-oxo-pyrrolidin-3-yloxy)-2-trifluoromethyl-benzonitrile (single enantiomer)]
hAR; [1]
  pIC50: 6.89
Androgen receptor; read-out: IC50
  pIC50: 6.90

## CC1(C)CN(C(=O)c2ccccc2)C(=O)C1Oc1ccc(C#N)c(C(F)(F)F)c1 (single isomer, unassigned; (+)) [Example 105, (+)-4-(1-Benzoyl-4,4-dimethyl-2-oxo-pyrrolidin-3-yloxy)-2-trifluoromethyl-benzonitrile]
hAR; [1]
  pIC50: 6.60
Androgen receptor
  pIC50: 7.66

## CC1(C)CN(Cc2ccccc2)C(=O)C1Oc1ccc(C#N)c(C(F)(F)F)c1 (centres unmarked) [Example 5, 4-(1-Benzyl-4,4-dimethyl-2-oxo-pyrrolidin-3-yloxy)2-trifluoromethyl-benzonitrile]
hAR; [2]
  pIC50: 7.49
Androgen receptor
  pIC50: 7.92

## CC1(C)CN(Cc2ccc(O)cc2)C(=O)C1Oc1ccc(C#N)c(C(F)(F)F)c1 (centres unmarked) [Example 8, 4-[1-(4-Hydroxy-benzyl)-4,4-dimethyl-2-oxo-pyrrolidin-3-yloxy]-2-trifluoromethyl-benzonitrile]
hAR; [2]
  pIC50: 7.77
Androgen receptor
  pIC50: 7.48
